# Structures can show the parent of a compound that is named as a salt.
# Tested on: not given
# Assay: not given
# Conditions: not given
row,SMILES,melting point
1,"O=C(Cc1ccc(N2CCS(=O)(=O)CC2)cc1)NC(c1ccccc1)c1ccccc1N1CCCCC1 (centres unmarked) (as salt: HCl) [Cpd. 1, 2-[4-(1,1-dioxo-1-thiomorpholin-4-yl)phenyl]-N-{phenyl[2-(piperidin-1-yl)phenyl]methyl}acetamide]",202 °C
2,"Cc1ccc(N2CCS(=O)(=O)CC2)cc1CC(=O)NC(c1ccccc1)c1ccccc1N1CCCCC1 (centres unmarked) (as salt: HCl) [Cpd. 2, 2-[5-(1,1-dioxo-1-thiomorpholin-4-yl)-2-methylphenyl]-N-{phenyl[2-(piperidin-1-yl)phenyl]methyl}acetamide]",188 °C
3,"O=C(Cc1cc(N2CCS(=O)(=O)CC2)ccc1F)NC(c1ccccc1)c1ccccc1N1CCCCC1 (centres unmarked) (as salt: HCl) [Cpd. 3, 2-[5-(1,1-dioxo-1-thiomorpholin-4-yl)-2-fluorophenyl]-N-{phenyl[2-(piperidin-1-yl)phenyl]methyl}acetamide]",184 °C
4,"Cc1ccc(C(NC(=O)Cc2cc(N3CCS(=O)(=O)CC3)ccc2F)c2ccccc2)c(N2CCOCC2)c1 (centres unmarked) (as salt: HCl) [Cpd. 4, 2-[5-(1,1-dioxo-1-thiomorpholin-4-yl)-2-fluorophenyl]-N-{[4-methyl-2-(morpholin-4-yl)phenyl](phenyl)methyl}acetamide]",207 °C
5,"Cc1ccc(C(NC(=O)Cc2cc(N3CCS(=O)(=O)CC3)ccc2C)c2ccc(C)o2)c(N2CCCCC2)c1 (centres unmarked) (as salt: HCl) [Cpd. 5, 2-[5-(1,1-dioxo-1-thiomorpholin-4-yl)-2-methylphenyl]-N-{[4-methyl-2-(piperidin-1-yl)phenyl](5-methylfuran-2-yl)methyl}acetamide]",101 °C
6,"Cc1ccc(C(NC(=O)Cc2ccc(N3CCS(=O)(=O)CC3)cc2)c2ccc(C)o2)c(N2CCCCC2)c1 (centres unmarked) (as salt: HCl) [Cpd. 6, 2-[4-(1,1-dioxo-1-thiomorpholin-4-yl)phenyl]-N-{[4-methyl-2-(piperidin-1-yl)phenyl](5-methylfuran-2-yl)methyl}acetamide]",101 °C
7,"Cc1ccc(C(NC(=O)Cc2cc(N3CCS(=O)(=O)CC3)ccc2C)c2ccccc2)c(N2CCOCC2)c1 (centres unmarked) (as salt: HCl) [Cpd. 7, 2-[5-(1,1-dioxo-1-thiomorpholin-4-yl)-2-methylphenyl]-N-{[4-methyl-2-(morpholin-4-yl)phenyl](phenyl)methyl}acetamide]",219 °C
8,"Cc1ccc(C(NC(=O)Cc2cc(N3CCOCC3)ccc2F)c2ccccc2)c(N2CCCCC2)c1 (centres unmarked) (as salt: HCl) [Cpd. 8, 2-[2-fluoro-5-(morpholin-4-yl)phenyl]-N-{[4-methyl-2-(piperidin-1-yl)phenyl](phenyl)methyl}acetamide]",82 °C
9,"Cc1ccc(C(NC(=O)Cc2ccc(N3CCS(=O)(=O)CC3)cc2)c2ccccc2)c(Br)c1 (centres unmarked) (as salt: HCl) [Cpd. 9, N-[(2-bromo-4-methylphenyl)(phenyl)methyl]-2-[4-(1,1-dioxo-1-thiomorpholin-4-yl)phenyl]acetamide]",142 °C
10,"Cc1ccc(C(NC(=O)Cc2ccc(N3CCS(=O)(=O)CC3)c(C)c2)c2ccc(C)o2)c(C(F)(F)F)c1 (centres unmarked) (as salt: HCl) [Cpd. 10, 2-[4-(1,1-dioxo-1-thiomorpholin-4-yl)-3-methylphenyl]-N-{[4-methyl-2-(trifluoromethyl)phenyl](5-methylfuran-2-yl)methyl}acetamide]",99 °C
11,"Cc1ccc(C(NC(=O)Cc2ccc(N3CCS(=O)(=O)CC3)c(C)c2)c2ccc(C)o2)c(Br)c1 (centres unmarked) (as salt: HCl) [Cpd. 11, N-[(2-bromo-4-methylphenyl)(5-methylfuran-2-yl)methyl]-2-[4-(1,1-dioxo-1-thiomorpholin-4-yl)-3-methylphenyl]acetamide]",110 °C
12,"Cc1ccc(C(NC(=O)Cc2ccc(N3CCS(=O)(=O)CC3)c(C)c2)c2ccc(C)o2)c(N2CCCCC2)c1 (centres unmarked) (as salt: HCl) [Cpd. 12, 2-[4-(1,1-dioxo-1-thiomorpholin-4-yl)-3-methylphenyl]-N-{[4-methyl-2-(piperidin-1-yl)phenyl](5-methylfuran-2-yl)methyl}acetamide]",97 °C
13,"COc1ccc(C(NC(=O)Cc2ccc(N3CCS(=O)(=O)CC3)c(C)c2)c2ccc(C)o2)c(N2CCC(C)CC2)c1 (centres unmarked) (as salt: HCl) [Cpd. 13, 2-[4-(1,1-dioxo-1-thiomorpholin-4-yl)-3-methylphenyl]-N-{[4-methoxy-2-(4-methylpiperidin-1-yl)phenyl](5-methylfuran-2-yl)methyl}acetamide]",101 °C
14,"COc1ccc(C(NC(=O)Cc2ccc(N3CCS(=O)(=O)CC3)c(C)c2)c2ccc(C)o2)c(N2CCC(C(F)(F)F)CC2)c1 (centres unmarked) (as salt: HCl) [Cpd. 14, 2-[4-(1,1-dioxo-1-thiomorpholin-4-yl)-3-methylphenyl]-N-({4-methoxy-2-[4-(trifluoromethyl)piperidin-1-yl]phenyl}(5-methylfuran-2-yl)methyl)acetamide]",106 °C
15,"COc1ccc(C(NC(=O)Cc2ccc(N3CCS(=O)(=O)CC3)c(C)c2)c2ccc(C)o2)c(N(C)C)c1 (centres unmarked) (as salt: HCl) [Cpd. 15, N-{[2-(dimethylamino)-4-methoxyphenyl](5-methylfuran-2-yl)methyl}-2-[4-(1,1-dioxo-1-thiomorpholin-4-yl)-3-methylphenyl]acetamide]",98 °C
16,"COc1ccc(C(NC(=O)Cc2ccc(N3CCS(=O)(=O)CC3)c(C)c2)c2ccc(C)o2)c(N2CC3CC3C2)c1 (centres unmarked) (as salt: HCl) [Cpd. 16, N-[(2-{3-azabicyclo[3.1.0]hexan-3-yl}-4-methoxyphenyl)(5-methylfuran-2-yl)methyl]-2-[4-(1,1-dioxo-1-thiomorpholin-4-yl)-3-methylphenyl]acetamide]",103 °C
17,"Cc1ccc(N2CCCCC2)c(C(NC(=O)Cc2cnc(N3CCS(=O)(=O)CC3)nc2)c2ccc(C)o2)c1 (centres unmarked) (as salt: HCl) [Cpd. 17, 2-[2-(1,1-dioxo-1-thiomorpholin-4-yl)pyrimidin-5-yl]-N-{[5-methyl-2-(piperidin-1-yl)phenyl](5-methylfuran-2-yl)methyl}acetamide]",159 °C

# Target: T1, human RORγt (Homo sapiens, UniProt P51449)
# T1 sequence (P51449 1-497 isoform P51449-2): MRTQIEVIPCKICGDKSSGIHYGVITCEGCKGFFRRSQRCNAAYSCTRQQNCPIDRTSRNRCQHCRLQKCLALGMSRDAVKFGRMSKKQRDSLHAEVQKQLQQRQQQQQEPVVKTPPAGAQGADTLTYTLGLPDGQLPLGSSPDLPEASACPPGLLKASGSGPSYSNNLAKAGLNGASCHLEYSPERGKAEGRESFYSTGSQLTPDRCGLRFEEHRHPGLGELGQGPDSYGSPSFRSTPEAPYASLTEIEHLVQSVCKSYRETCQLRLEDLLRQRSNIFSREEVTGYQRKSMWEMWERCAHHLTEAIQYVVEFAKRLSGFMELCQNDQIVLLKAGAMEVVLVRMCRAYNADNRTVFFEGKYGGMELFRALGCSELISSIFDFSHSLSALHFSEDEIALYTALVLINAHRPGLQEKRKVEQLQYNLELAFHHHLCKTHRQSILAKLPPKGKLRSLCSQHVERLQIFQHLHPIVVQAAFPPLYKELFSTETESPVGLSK
# Assay: RORE Luciferase/RORγt transactivation assay (IL-17 promoter luciferase reporter in COS-7 cells)
# Assay type: cell-based
# Design: V5-His (named only through the vector pcDNA3.1D/V5-His-TOPO); expressed in transfected cells; host or cells: COS-7 (monkey kidney)
# Conditions: RORγt activity inhibition, luciferase activity in transfected COS-7 cells, 20 h
# Procedure: It is well known that RORγ binds to a conserved non-coding sequence (CNS) enhancer element in the IL-17 promoter.
# Culture medium was changed every 2 days.
# The 4.3 Kb human IL-17 promoter containing the RORγ-specific CNS enhancer element was PCR amplified from human genomic DNA and cloned into a pGL3-TKLuc2Cp reporter plasmid.
# The luciferase reporter plasmid and the RORγt overexpression plasmid were transfected into COS-7 cell line using 4 μL JetPEI™/μg of DNA. Briefly, 150 ng of DNA (ration 1/2 between RORE-Tk Luc2Cp and cDNA RORγt or the empty vector for the negative control) was served to transfect adherent COS-7 cells in a […] culture flask, in complete medium (see cos-7 cell line culture).
# Cells were then detached (using trypsin) and washed by centrifugation at 300 g for 10 minutes. Cell pellet was resuspended in serum free/phenol red free DMEM and seeded in 384 well plates at a density of 10000 cells/well and then incubated for 4 h at 37° C.
# Compounds were dissolved in 100% DMSO to obtain 10 mM stock solutions. For each compound, test concentrations were diluted in serum free/phenol red free DMEM using the Genesis Freedom 200™ (TECAN) and added to the cells to obtain a 0.3% DMSO final concentration (in a final volume of 40 μL per well).
# The luciferase activity was then measured with 40 μL/well steady-Glo Luciferase assay system (Promega, Madison, Wis.) and after incubation at room temperature for 30 minutes. The luminescence was estimated using the Ultra384 reader (TECAN). Data were collected and analyzed using GraphPad Prism software (GraphPad Software V5.02, San Diego Calif. USA). IC50 in μM and E max in % were reported for each compound.
row,SMILES,IC50
1,"Cc1ccc(C(NC(=O)Cc2cnc(N3CCS(=O)(=O)CC3)nc2)c2ccc(C)o2)c(C(F)(F)F)c1 (centres unmarked) [Cpd. 33, 2-[2-(1,1-dioxo-1-thiomorpholin-4-yl)pyrimidin-5-yl]-N-{[4-methyl-2-(trifluoromethyl)phenyl](5-methylfuran-2-yl)methyl}acetamide]",1 to 10 µM
2,"Cc1ccc(C(NC(=O)Cc2cnc(N3CCS(=O)(=O)CC3)nc2)c2ccc(Cl)cc2Cl)o1 (centres unmarked) [Cpd. 50, N-[(2,4-dichlorophenyl)(5-methylfuran-2-yl)methyl]-2-[2-(1,1-dioxo-1-thiomorpholin-4-yl)pyrimidin-5-yl]acetamide]",1 to 10 µM
3,"Cc1ccc(C(NC(=O)Cc2ccc(N3CCS(=O)(=O)CC3)c(O)c2)c2ccc(C)o2)c(N2CCCCC2)c1 (centres unmarked) [Cpd. 61, 2-[4-(1,1-dioxo-1-thiomorpholin-4-yl)-3-hydroxyphenyl]-N-{[4-methyl-2-(piperidin-1-yl)phenyl](5-methylfuran-2-yl)methyl}acetamide]",< 0.1 µM
4,"COCc1ccc(CC(=O)NC(c2ccc(C)o2)c2ccc(C)cc2N2CCCCC2)cc1N1CCS(=O)(=O)CC1 (centres unmarked) [Cpd. 62, 2-[3-(1,1-dioxo-1-thiomorpholin-4-yl)-4-(methoxymethyl)phenyl]-N-{[4-methyl-2-(piperidin-1-yl)phenyl](5-methylfuran-2-yl)methyl}acetamide]",0.1 to 1 µM
5,"Cc1ccc(C(NC(=O)Cc2ccc(CO)c(N3CCS(=O)(=O)CC3)c2)c2ccc(C)o2)c(N2CCCCC2)c1 (centres unmarked) [Cpd. 63, 2-[3-(1,1-dioxo-1-thiomorpholin-4-yl)-4-(hydroxymethyl)phenyl]-N-{[4-methyl-2-(piperidin-1-yl)phenyl](5-methylfuran-2-yl)methyl}acetamide]",0.1 to 1 µM
6,"Cc1ccc(C(NC(=O)C2(c3ccc(N4CCS(=O)(=O)CC4)cn3)CC2)c2ccc(C)o2)c(C)c1 (centres unmarked) [Cpd. 73, N-[(2,4-dimethylphenyl)(5-methylfuran-2-yl)methyl]-1-[5-(1,1-dioxo-1-thiomorpholin-4-yl)pyridin-2-yl]cyclopropane-1-carboxamide]",0.1 to 1 µM

# Source: patent US11077115B2, “Rorgamma modulators and uses thereof” (Genfit, priority 2017, dated 2021)
